ChEMBL document CHEMBL5532635, “The role of natural anti-parasitic guided development of synthetic drugs for leishmaniasis” (Eur J Med Chem, 2023)
In brackets after ≈: the same amount, converted by molar mass.

Tests used:
Leishmania major [1] = test: Antileishmanial activity against Leishmania major amastigotes assessed as reduction in parasite growth incubated for 72 hrs by MTT assay; assay type: functional, organism-based
Leishmania major [2] = test: Antileishmanial activity against Leishmania major promastigotes assessed as reduction in parasite growth incubated for 72 hrs by MTT assay; assay type: functional, organism-based
Leishmania amazonensis [3] = test: Antileishmanial activity against Leishmania amazonensis promastigotes infected in BALB/c mouse assessed as reduction of IgG1 level at 400 mg/kg per day, ip administered for 30 days measured at 10 week by ELISA assay; assay type: functional, organism-based
Leishmania donovani [4] = test: Antileishmanial activity against Leishmania donovani promastigotes assessed as inhibition of parasite growth measured after 24 hrs by Alamar blue based analysis; assay type: functional, organism-based
Leishmania major [5] = test: Antileishmanial activity against Leishmania major promastigotes assessed as parasite growth inhibition incubated for 24 hrs by Alamar blue staining based assay; assay type: functional, organism-based
Leishmania amazonensis [6] = test: Antileishmanial activity against Leishmania amazonensis amastigotes assessed as reduction in parasite growth; assay type: functional, organism-based
Leishmania amazonensis [7] = test: Antileishmanial activity against Leishmania amazonensis promastigotes assessed as reduction in parasite viability after 72 hrs by CCK-8 assay; assay type: functional, organism-based
Leishmania donovani [8] = test: Antileishmanial activity against Leishmania donovani promastigotes assessed as reduction in parasite growth; assay type: functional, organism-based
Leishmania amazonensis [9] = test: Antileishmanial activity against Leishmania amazonensis MHOM/BR/77/LTB001 assessed as parasite growth inhibition; assay type: functional, organism-based
Leishmania amazonensis [10] = test: Antileishmanial activity against Leishmania amazonensis IFLA/BR/1967/PH8 amastigotes infected in mouse peritoneal macrophage assessed as inhibition of parasite growth measured after 24 hrs by Giemsa staining based analysis; assay type: functional, organism-based; settings: IFLA/BR/1967/PH8, Peritoneal macrophage cell
Leishmania infantum [11] = test: Antileishmanial activity Leishmania infantum promastigotes assessed as reduction in parasite growth incubated for 72 hrs by alamar blue assay; assay type: functional, organism-based
Leishmania major [12] = test: Antileishmanial activity against Leishmania major IR-173 promastigotes assessed as inhibition of parasite growth incubated for 48 hrs by resazurin dye based assay; assay type: functional, organism-based; settings: IR-173, 48 h
Leishmania major [13] = test: Antileishmanial activity against Leishmania major promastigotes assessed as inhibition of parasite growth incubated for 48 hrs by resazurin dye based assay; assay type: functional, organism-based
Leishmania tropica [14] = test: Antileishmanial activity against Leishmania tropica promastigotes incubated for 24 hrs measured by alamar blue staining based fluorescence analysis; assay type: functional, organism-based
Leishmania tropica [15] = test: Antileishmanial activity against Leishmania tropica amastigotes incubated for 24 hrs measured by alamar blue staining based fluorescence analysis; assay type: functional, organism-based
Leishmania infantum [16] = test: Antileishmanial activity against Leishmania infantum assessed as reduction in parasite growth; assay type: functional, organism-based
Leishmania amazonensis [17] = test: Antileishmanial activity against Leishmania amazonensis promastigotes assessed as reduction in parasite growth measured after 24 hrs by MTT assay; assay type: functional, organism-based
Leishmania amazonensis [18] = test: Antileishmanial activity against Leishmania amazonensis amastigotes assessed as reduction in parasite growth measured after 24 hrs by MTT assay; assay type: functional, organism-based
[19] = Cytotoxicity against mouse RAW264.7 cells assessed as reduction in cell viability measured after 24 hrs by CCK8 assay; assay type: toxicity, cell-based
Leishmania infantum [20] = test: Antileishmanial activity against Leishmania infantum MHOM/BR/70/BH46 promastigotes assessed as inhibition of parasite growth incubated for 72 hrs by Neubauer chamber based analysis; assay type: functional, organism-based; settings: MHOM/BR/70/BH46, 72 h
Leishmania infantum [21] = test: Antileishmanial activity against Leishmania infantum promastigotes assessed as reduction in parasite viability measured after 48 hrs by MTT assay; assay type: functional, organism-based
Leishmania mexicana = test: Antileishmanial activity against Leishmania mexicana intracellular amastigotes infected in J774 macrophages assessed as reduction in parasite viability after 72 hrs by MTT based analysis; assay type: functional, organism-based; settings: J774, 72 h
Leishmania donovani [22] = test: Antileishmanial activity against Leishmania donovani promastigotes at 50 uM; assay type: functional
Leishmania donovani [23] = test: Antileishmanial activity against Leishmania donovani promastigotes at 25 uM; assay type: functional

**Q.** With `COc1c2c(cc3c1-c1ccc(OC)c(=O)cc1[C@@H](NC(C)=O)CC3)OCO2` as the compound, how does the IC50 (Leishmania major [1]) read?
**A.** Its IC50 is 8.7 µg/mL (≈ 22.7 µM).

**Q.** What about the IC50 (Leishmania major [2]) of the same compound?
**A.** The IC50 was 0.4 µg/mL (≈ 1.04 µM).

**Q.** With `CC[C@H]1CN2CCc3c([nH]c4ccccc34)[C@@H]2C[C@@H]1/C(=C\OC)C(=O)OC` as the compound, how does the IC50 (Leishmania amazonensis [3]) read?
**A.** Its IC50 is 1.65 µM.

**Q.** For `C=C[C@H]1CN2CCc3c([nH]c4ccccc34)[C@@H]2C[C@@H]1/C(=C\OC)C(=O)OC`, which IC50 (Leishmania amazonensis [3]) is on record?
**A.** Its IC50 is 1.12 µM.

**Q.** With `C[C@@H]1CC[C@@]2(C)C(C(=O)O)=CCC[C@@H]2[C@@]1(C)CCc1ccoc1` as the compound, how does the IC50 (Leishmania donovani [4]) read?
**A.** Its IC50 is 10 µM.

**Q.** What about the IC50 (Leishmania major [5]) of the same compound?
**A.** Its IC50 is 10 µM.

**Q.** For `CO[C@@H]1C(=O)C[C@H]2O[C@]1(C)n1c3ccccc3c3c4c(c5c6ccccc6n2c5c31)C(=O)NC4`, which IC50 (Leishmania amazonensis [6]) is on record?
**A.** The IC50 was 0.005 µM.

**Q.** What about the IC50 (Leishmania amazonensis [7]) of the same compound?
**A.** The IC50 was 0.037 µM.

**Q.** What about the IC50 (Leishmania donovani [8]) of the same compound?
**A.** Its IC50 is greater than 0.089 µM.

**Q.** For `CN[C@@H]1C[C@H]2O[C@@](C)([C@@H]1OC)n1c3ccccc3c3c4c(c5c6ccccc6n2c5c31)C(=O)NC4=O`, which IC50 (Leishmania amazonensis [9]) is on record?
**A.** The IC50 was 0.007 µM.

**Q.** And the IC50 (Leishmania amazonensis [6])?
**A.** The IC50 was 0.0002 µM.

**Q.** And the IC50 (Leishmania donovani [8])?
**A.** Its IC50 is 0.001 µM.

**Q.** For `O=C(CC[Se]c1ccnc2cc(Cl)ccc12)Nc1ccc([N+](=O)[O-])cc1`, which IC50 (Leishmania amazonensis [10]) is on record?
**A.** The IC50 was 10.8 µM.

**Q.** Which EC50 (Leishmania infantum [11]) does the source give for `C/C(=C\COc1cc(O)cc2oc(=O)ccc12)C/C=C/C(C)(C)OO` here?
**A.** The EC50 was 20.2 µM.

**Q.** Which results are given for `CCC[C@H]1CC(=O)Oc2c(C(=O)[C@H](C)[C@H](C)O)c(O)c3c(c21)OC(C)(C)C=C3`?
**A.** IC50 (Leishmania major [12]): 36.5 µg/mL (≈ 94 µM); IC50 (Leishmania major [13]): 29.1 µg/mL (≈ 74.9 µM)

**Q.** For `Cc1ccccc1C(=O)N/N=C1\C(=O)N(CC(O)COc2cc(=O)oc3ccccc23)c2ccccc21` (centres undefined), which IC50 (Leishmania tropica [14]) is on record?
**A.** Its IC50 is 3.73 µM.

**Q.** What about the IC50 (Leishmania tropica [15]) of the same compound?
**A.** The IC50 was 4.13 µM.

**Q.** Which IC50 (Leishmania infantum [16]) does the source give for `Cc1cc(O)c(C(=O)Nc2ccccc2)c(=O)n1Cc1ccc(Cl)cc1` here?
**A.** Its IC50 is 55 µM.

**Q.** Which results are given for `COc1ccc(C(O)C(C)Oc2ccc(C3OC(c4ccc(OC(C)C(O)c5ccc(OC)c(OC)c5)c(OC)c4)C(C)C3C)cc2OC)cc1OC` (centres undefined)?
**A.** IC50 (Leishmania amazonensis [17]): 35.4 µg/mL (≈ 48.3 µM); IC50 (Leishmania amazonensis [18]): 20.4 µg/mL (≈ 27.8 µM)

**Q.** Which IC50 (Leishmania infantum [16]) does the source give for `Cc1cc(O)c(C(=O)Nc2ccccc2)c(=O)n1Cc1ccc(F)cc1` here?
**A.** The IC50 was 55 µM.

**Q.** For `CCCn1c(C)cc(O)c(C(=O)Nc2ccc(Br)cc2)c1=O`, which IC50 (Leishmania infantum [16]) is on record?
**A.** Its IC50 is 55 µM.

**Q.** Which CC50 at 24 h [19] does the source give for `O=C(/C=C/c1ccc(F)cc1)c1ccccc1Cl` here?
**A.** Its CC50 at 24 h is 479 µM.

**Q.** With `CCc1ccc(NC(=S)N/N=C\c2c[nH]c3c(C)cc(Br)cc23)cc1` as the compound, how does the IC50 (Leishmania infantum [20]) read?
**A.** Its IC50 is 4.36 µM.

**Q.** Which IC50 (Leishmania major [1]) does the source give for `COc1c(O[C@@H]2O[C@H](CO)[C@@H](O)[C@H](O)[C@H]2O)cc2c(c1OC)-c1ccc(OC)c(=O)cc1[C@@H](NC(C)=O)CC2` here?
**A.** The IC50 was 4 µg/mL (≈ 7.31 µM).

**Q.** What about the IC50 (Leishmania major [2]) of the same compound?
**A.** Its IC50 is 0.2 µg/mL (≈ 0.365 µM).

**Q.** For `Cc1cc(O)c(C(=O)Nc2ccc(Br)cc2)c(=O)n1C1CC1`, which IC50 (Leishmania infantum [16]) is on record?
**A.** Its IC50 is 55 µM.

**Q.** Which IC50 (Leishmania infantum [16]) does the source give for `Cc1cc(O)c(C(=O)Nc2ccccc2)c(=O)n1Cc1cccc(Cl)c1Cl` here?
**A.** The IC50 was 55 µM.

**Q.** Which results are given for `COC1=C(C)O[C@H]2C[C@@]1(OC)n1c3ccccc3c3c4c(c5c6ccccc6n2c5c31)C(=O)NC4`?
**A.** IC50 (Leishmania amazonensis [7]): 0.0224 µM; IC50 (Leishmania donovani [8]): > 0.089 µM

**Q.** With `CCOC(=O)c1cc2c([nH]c3ccccc32)c(-c2ccccn2)n1` as the compound, how does the EC50 (Leishmania infantum [21]) read?
**A.** The EC50 was 3.36 µM.

**Q.** Which IC50 (Leishmania amazonensis [10]) does the source give for `COc1ccc2nc(C(=O)NCCCN(C)C)ccc2c1` here?
**A.** The IC50 was 5.67 µM.

**Q.** For `CCOC(=O)c1cc2c([nH]c3ccccc32)c(-c2cn(-c3ccccc3)nn2)n1`, which EC50 (Leishmania infantum [21]) is on record?
**A.** The EC50 was 13.6 µM.

**Q.** For `COc1cc2oc(=O)ccc2c(OC/C=C(\C)C/C=C/C(C)(C)OO)c1OC`, which EC50 (Leishmania infantum [11]) is on record?
**A.** Its EC50 is 26.2 µM.

**Q.** Which IC50 (Leishmania mexicana) does the source give for `COc1cc(/C=C/C(=O)c2ccc([N+](=O)[O-])cc2)ccc1OCC=C(C)C` here?
**A.** Its IC50 is 8.22 µM.

**Q.** For `CCOC(=O)c1cc2c([nH]c3ccccc32)c(-c2cc3ccccc3n3nnnc23)n1`, which EC50 (Leishmania infantum [21]) is on record?
**A.** Its EC50 is 10.2 µM.

**Q.** Which Activity (Leishmania donovani [22]) does the source give for `COc1cc(/C=C2/Oc3cc(O)ccc3C2=O)cc(OC)c1` here?
**A.** The Activity was 109%.

**Q.** What about the Activity (Leishmania donovani [23]) of the same compound?
**A.** The Activity was 106%.
